Laboratory results as given in patent publication US9073858B2, “Methods of targeted drug development” (priority 2010, dated 2015).
Where two headings read alike, the source gives them in different places.

Columns and labels:
EGFR = target: T1, EGFR (Homo sapiens, UniProt P00533); assay: EGFR in-cell Western (ICW) screening protocol; format: cell-based; parameters: unit not given here; details: for ICW Screen: initial screen
T1 construct: endogenous in cells; host or cells: A431 cells (ATCC CRL-1555)
Method: The following example describes general EGFR in-cell Western (ICW) screening protocol.
Two cell plates were prepared for each compound plate.
Serum Starvation: The cells were serum starved prior to compound addition. […] The cell plates were incubated at 37° C./5% CO2 for 2 hours.
Prepared compound plates were stored at RT prior to use and at 4° C. long term.
Compound Dilution Plate Preparation: 250 μl of DMEM supplemented with 1 mg/ml BSA (Sigma A3059-10G) was added to the appropriate wells of a 96 well plate to prepare the compound dilution plates. Using a multichannel pipettor, 1.25 μl of compound from the compound plate was transferred into the compound dilution plate.
Compound Addition: The starve media was removed from the cell plates by aspiration. Using a multichannel pipettor, the compound dilution plates were mixed by pipetting up and down three times. 50 μl of mixed, diluted compound was added to each of two rows/columns on each of two cell plates. The cell plates with compound were incubated at 37° C./5% CO2 for 4 hours.
50 μl of 20 or 0 ng/ml EGF was added to the appropriate wells without the removal of compound. The compound and EGF were mixed by pipetting up and down three times.
The plates were incubated at RT for 20 min without shaking. The Fixation Solution was removed by aspiration and the plates washed four times with 200 μl each of Triton Wash Solution (1×PBS, Sigma P3813-10PK, and 0.1% Triton X-100, T8787-50ML) for 5 min with gentle shaking.
The block was removed by aspiration and 50 μl of diluted primary Ab mix was added. The plates were incubated at 4° C. overnight with gentle shaking. The plates were washed five times with 200 μl of PBST (1×PBS, Sigma P3813-10PK, and 0.1% Tween-20, Sigma P9416-50ML) for 5 min each with shaking. 50 μl of diluted secondary Ab mix was added and the plates incubated at RT for 1 h with shaking. The plates were washed 5× with 200 μl of PBST for 5 min each with shaking. One final wash with 200 μl of PBS (Sigma P3813-10PK) for 5 min with shaking was performed prior to scanning.
In some screening assays, the dilution of the secondary Ab conjugates was 1/800 rather than 1/1200.
Plate Scanning: The plates were scanned on an Odyssey Infrared Imaging System from LI-COR Biosciences. The focus offset was set at 3.5 mm and the scanning intensity set at 3 for the 700 channel and 7 for the 800 channel.
Data Analysis: The % of Maximum and % Inhibition values were calculated as follows. 700 Channel=signal for total EGFR (used to control for variation in cell number). 800 Channel=signal for phosphorylated EGFR. 800−EGF=basal level EGFR phosporylation+non-specific signal (no compound). 800+EGF=800−EGF+EGF dependent EGFR receptor phosphorylation (no compound). 700/800com=700 or 800 channel signals with compound. % Maximum={[(800com/700com)−(800−EGF/700−EGF)]/[(800+EGF/700+EGF)−(800−EGF/700−EGF)]}×100%. % Inhibition=100%−(% Maximum).

MDBK line = assay: MTT Cell Proliferation Assay, MDBK line; format: cell-based, bovine
Text: (§1) The following example describes the MTT Cell Proliferation Assay.
(§2) The MTT Cell Proliferation Assay is a colorimetric assay system that measures the reduction of the tetrazolium salt MTT (3-(4,5-dimethylthiazol-2-yl)-2,5-diphenyltetrazolium bromide) into insoluble formazan crystals, produced by the mitochondria of viable cells. […] The color can then be quantified by spectrophotometric means. Among the applications for the method are drug sensitivity, cytotoxicity, response to growth factors, and cell activation. The reduction of tetrazolium salts is now recognized as a safe, accurate alternative to radiometric testing.
(§3) Two replicates on each cell plate and 2 duplicate plates gave 4 individual replicates of each concentration, in each cell line. Concentrations were diluted in 100% DMSO from 25 mM stocks.
(§4) Twelve 96 well plates of each cell line were plated. Plating was done by dislodging cells as in passage protocol, counting on a hemocytometer, re-suspending in standard growth media, and plating using a multichannel pippetor.
(§5) 16 μl of 25 mM stock+34 μl DMSO=8 mM starting concentrations, and serial diluted as with test compounds in same plate. […] Two replicates of each concentrations was run on each cell plate. All compound addition and cell treatments were done using aseptic technique under a laminar flow aseptic hood.
(§6) Control: 0.5% DMSO in treatment media was used as the control.
(§7) MTT dye (Thiazolyl Blue Tetrazolium Bromide, Sigma cat # M5655) stock was prepared in bulk and stored at 4° C. for use: 5 mgs/ml sterile PDS, shielded from light. 4 ul of this stock per 100 uls treatment media per well was used.
(§8) Plates were incubated overnight prior to treatment, with treatment day=Day 0. Compound treatments were prepared prior to washing cells to minimize time cells were dry at room temperature after final aspiration. Compounds were diluted in 100% DMSO in 96 well polypropylene plates:40 μl 25 mM stock+10 μl DMSO=20 mM; 20 μl of 20 mM+30 μl DMSO=8 mM; 20 μl of 8 mM+30 μl DMSO=3.2 mM; 20 μl of 3.2 mM+30 μl DMSO=1.3 mM; 20 μl of 1.3 mM+30 μl DMSO=0.51 mM.
(§9) 5.0 μl/ml were added to treatment media, in sterile, 2.2 ml deep well plates=0.5% dmso final. Ten μl of each dmso concentration was added to 2.0 ml of treatment media and then mixed using a 1200 μl multichannel pipettor. Cell plates were treated from the deep well plates. Treatment media was standard growth media containing 0.5% FBS and standard additions. This reduced FBS concentration allowed for a slower growth rate in cells.
(§10) Media was aspirated from cell plates, and washed with 200 μl/well sterile PBS. Aspirated PBS wash, and cell plates were treated with 200 μl of compound/treatment media per well, and incubated at 37° C., 5% CO2 for 3 days.
(§11) Prior to harvesting, visual observations were made under an inverted microscope. Plates were harvested by: aspirating the growth media; adding back MTT dye/100 μl treatment media; and incubating plates at 37° C. for 1 hour. MTT dye was aspirated. 100 μl/well dmso was added, and then shaken on a Bellco plate shaker for 5 minutes, at 4.5 setting.
(§12) Plates were read in a Tecan Sunrize UV plate reader, at 560 nm. Settings: Read mode, Outside Normal 2 sec; Shake settle time 3 sec. Data is reported as % inhibition, calculated for individual plates using control values from that plate.

[1] = test system: epithelial carcinoma A431 cell line; assay: MTT Cell Proliferation Assay, A431 cell line; format: cell-based; details: for MTT (10 Point follow-up) ratio / MTT-72 h A431/MDBK (ratio): value in brackets; for MTT (10 Point follow-up) ratio: numerically MDBK over A431; for MTT-72 h A431/MDBK (ratio): numerically MDBK value over A431 value
Text: as §1, §2, §3, §4, §5, §6, §7, §8, §9, §10, §11, §12

[2] = Bos taurus, MDBK, 72 h, second value of A431/MDBK pair, read-out: MTT-72 h MDBK
[3] = Homo sapiens, A-431, 72 h, 72 h, first value of A431/MDBK pair, read-out: MTT-72 h A431
[4] = Bos taurus, MDBK, 10 point follow-up, second value of pair, read-out: MTT (10 Point follow-up) MDBK
[5] = Homo sapiens, A-431, 10 point follow-up, first value of pair, read-out: MTT (10 Point follow-up) A431

T1 sequence (P00533 25-1210): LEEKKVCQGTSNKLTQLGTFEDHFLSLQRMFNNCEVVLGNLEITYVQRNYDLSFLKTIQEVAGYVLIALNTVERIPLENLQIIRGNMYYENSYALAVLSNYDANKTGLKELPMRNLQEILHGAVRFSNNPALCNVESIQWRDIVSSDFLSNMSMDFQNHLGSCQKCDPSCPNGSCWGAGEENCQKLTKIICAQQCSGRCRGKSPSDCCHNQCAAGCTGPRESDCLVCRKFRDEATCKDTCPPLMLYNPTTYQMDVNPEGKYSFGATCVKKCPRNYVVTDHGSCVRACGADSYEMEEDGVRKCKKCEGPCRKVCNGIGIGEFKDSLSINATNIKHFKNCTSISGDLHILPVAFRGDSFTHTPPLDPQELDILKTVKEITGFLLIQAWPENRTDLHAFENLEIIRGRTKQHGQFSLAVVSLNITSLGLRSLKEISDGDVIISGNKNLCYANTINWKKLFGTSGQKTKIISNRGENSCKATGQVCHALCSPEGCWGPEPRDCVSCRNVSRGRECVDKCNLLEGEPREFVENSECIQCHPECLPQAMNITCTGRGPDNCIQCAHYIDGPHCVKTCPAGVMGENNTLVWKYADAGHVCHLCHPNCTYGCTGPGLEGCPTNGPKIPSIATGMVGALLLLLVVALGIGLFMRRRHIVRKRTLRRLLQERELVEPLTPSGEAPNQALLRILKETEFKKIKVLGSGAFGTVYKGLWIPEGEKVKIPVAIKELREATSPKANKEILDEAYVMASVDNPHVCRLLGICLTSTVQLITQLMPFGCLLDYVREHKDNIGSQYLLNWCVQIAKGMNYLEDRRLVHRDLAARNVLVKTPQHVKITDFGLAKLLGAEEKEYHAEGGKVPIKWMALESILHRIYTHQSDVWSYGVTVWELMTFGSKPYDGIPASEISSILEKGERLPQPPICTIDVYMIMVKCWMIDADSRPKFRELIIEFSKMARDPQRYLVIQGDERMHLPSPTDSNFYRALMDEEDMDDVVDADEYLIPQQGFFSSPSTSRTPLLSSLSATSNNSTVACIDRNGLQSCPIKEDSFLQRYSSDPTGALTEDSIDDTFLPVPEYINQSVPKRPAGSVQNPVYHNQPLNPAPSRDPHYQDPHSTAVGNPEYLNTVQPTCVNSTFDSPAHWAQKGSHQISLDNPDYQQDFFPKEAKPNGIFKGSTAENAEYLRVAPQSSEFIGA

## Oc1c(C(Nc2ccccn2)c2ccc(Cl)cc2Cl)ccc2cccnc12 (stereo not drawn) [compound 10484]
EGFR
  ICW Screen: 26.3
MDBK line; 10 point follow-up, second value of pair, read-out: MTT (10 Point follow-up) MDBK
  IC50: 0.679 µM
MDBK line; [2]
  IC50: 0.85 µM
[1]; 10 point follow-up, first value of pair, read-out: MTT (10 Point follow-up) A431
  IC50: 0.305 µM
[1]; 10 point follow-up
  MTT (10 Point follow-up) ratio: 2.12
[1]; 72 h
  MTT-72 h A431/MDBK (ratio): 2.70
[1]; [3]
  IC50: 0.32 µM

## Cc1ccnc(NC(c2ccncc2)c2ccc3cccnc3c2O)c1 (stereo not drawn) [compound 10968]
EGFR
  ICW Screen: 27
MDBK line; [2]
  IC50: 7.84 µM
[1]; 72 h
  MTT-72 h A431/MDBK (ratio): 0.71
[1]; [3]
  IC50: 11.1 µM

## O=[N+]([O-])c1cccc(C(Nc2cccnc2)c2cc(Cl)c3cccnc3c2O)c1 (stereo not drawn) [compound 10947]
EGFR
  ICW Screen: 42.78
  ICW Re-Test: 42.98
MDBK line; [2]
  IC50: 2.66 µM
[1]; 72 h
  MTT-72 h A431/MDBK (ratio): 0.52
[1]; [3]
  IC50: 5.15 µM

## CON1CCN(C(c2cccnc2)c2ccc3cccnc3c2O)CC1 (stereo not drawn) [compound 10551]
EGFR
  ICW Screen: 29.14
MDBK line; [2]
  IC50: 11.4 µM
[1]; 72 h
  MTT-72 h A431/MDBK (ratio): 0.57
[1]; [3]
  IC50: 20.1 µM

## CCOc1ccc(C(Nc2ccccn2)c2cc(Cl)c3cccnc3c2O)cc1 (stereo not drawn) [compound 10101]
EGFR
  ICW Screen: 44.01
  ICW Re-Test: 7.53
MDBK line; 72 h, second value of A431/MDBK pair, read-out: MTT-72 h MDBK
  IC50: 9.52 µM
MDBK line; [4]
  IC50: 2.59 µM
[1]; 10 point follow-up
  MTT (10 Point follow-up) ratio: 0.90
[1]; 72 h, first value of A431/MDBK pair, read-out: MTT-72 h A431
  IC50: 5.77 µM
[1]; 72 h
  MTT-72 h A431/MDBK (ratio): 1.66
[1]; [5]
  IC50: 2.88 µM

## OCCN1CCN(C(c2cccs2)c2ccc3cccnc3c2O)CC1 (stereo not drawn) [compound 10546]
EGFR
  ICW Screen: 25.23
MDBK line; [2]
  IC50: 5.92 µM
[1]; 72 h
  MTT-72 h A431/MDBK (ratio): 0.84
[1]; [3]
  IC50: 7.03 µM

## COc1ccc(NC(c2ccccn2)c2ccc3cccnc3c2O)cc1 (stereo not drawn) [compound 11103]
EGFR
  ICW Screen: 50.55
  ICW Re-Test: 45.86
MDBK line; [2]
  IC50: 36.4 µM
[1]; 72 h
  MTT-72 h A431/MDBK (ratio): 1.75
[1]; [3]
  IC50: 20.8 µM

## CCN1CCN(C(c2ccc(C(F)(F)F)cc2)c2ccc3cccnc3c2O)CC1 (stereo not drawn) [compound 10535]
EGFR
  ICW Screen: 44.02
  ICW Re-Test: 52.63
MDBK line; [4]
  IC50: 2.91 µM
MDBK line; [2]
  IC50: 3.95 µM
[1]; 10 point follow-up
  MTT (10 Point follow-up) ratio: 1.43
[1]; 72 h
  MTT-72 h A431/MDBK (ratio): 1.45
[1]; [5]
  IC50: 2.04 µM
[1]; [3]
  IC50: 2.72 µM

## Oc1c(C(Nc2cccc(F)c2)c2ccccn2)ccc2cccnc12 (stereo not drawn) [compound 11105]
EGFR
  ICW Screen: 48.25
  ICW Re-Test: 17.88
MDBK line; [4]
  IC50: 6.5 µM
MDBK line; [2]
  IC50: 7.03 µM
[1]; 10 point follow-up
  MTT (10 Point follow-up) ratio: 1.38
[1]; 72 h
  MTT-72 h A431/MDBK (ratio): 1.29
[1]; [5]
  IC50: 4.72 µM
[1]; [3]
  IC50: 5.46 µM

## CN1CCN(C(c2ccccn2)c2ccc3cccnc3c2O)CC1 (stereo not drawn) [compound 10548]
EGFR
  ICW Screen: 31.03
MDBK line; [2]
  IC50: 8.07 µM
[1]; 72 h
  MTT-72 h A431/MDBK (ratio): 0.89
[1]; [3]
  IC50: 9.05 µM
